Consider one substance from patent publication US20230381257A1, “HERBAL COMPOSITION JCM-16021 AS TREATMENT FOR INFLAMMATORY BOWEL DISEASE” (Hong Kong Baptist University, priority 2022, published 2023).

Common to all, as to type: in vivo, Rag 1−/− immunodeficient mice
Experiment [1] concerns ulcerative colitis induced by CD4+ naive T cell transfer. In words: CD4+ naive T cell transfer-induced ulcerative colitis model: fecal occult blood, pathological index, H&E/PAS histology. From the text:
Day one of the experiment is defined as i) adoptive transfer of […] CD4^+ T cells to Rag 1^−/− mice or ii) first day of DSS administration. JCM-16021 was orally administered to mice (weighing approximately 22-24 grams) at doses of 1.0 and 2.0 g/kg. Body weight and fecal bleeding were monitored every three days. Mice were euthanized and serum, colon tissue, spleen, mesenteric lymph nodes and feces were collected for further analysis.
Fecal occult blood test kit was purchased from Nanjing Jiancheng Bioengineering Institute and performed according to the kit instructions.
Histological staining, PAS staining, immunohistochemical staining and immunofluorescent staining: • At the end of the experiment, mouse colon tissue was preserved using 4% paraformaldehyde fixed at 4° C. for 2 hours and embedded in paraffin. After dewaxing, mouse colon tissue sections were washed with PBS and blocked with 3% H2O2. Tissue sections were then blocked with blocking solution (10% horse serum, 0.1% bovine serum albumin, 0.2% gelatin) at room temperature for 1 hour to block non-specific sites. […]
Histological grading of colitis were analyzed based on inflammatory features, extent, regeneration, crypt damage and percentage in hematoxylin-eosin and periodic acid-Schiff stained colon sections. Colitis scores will be determined by two independent researchers blinded to animal treatment.
CD4^+ naive T cells were isolated and purified from the spleens of wild-type C57BL/6J mice using a naive CD4+ T cell isolation kit (#130-104-453, Miltenyi Biotech) according to the manufacturer's recommendations. The isolated CD4^+ naive T cells were incubated with antibodies against CD4 (#100406, BioLegend), CD25 (#17025182, eBiosciences) and CD45RB (#103314, BioLegend) and purity was analyzed by BD Fortessa flow cytometer (BD Biosciences). […] Clinical symptoms of colitis including fecal occult blood, loose stool/diarrhea, rough/hunched posture and weight loss were monitored every three days thereafter. […]

The subject of another experiment is Tnf-α and Mcp-1 mRNA. In words: qRT-PCR of colon tissue, T cell transfer colitis model. The protocol: Total RNA was extracted from tissues using Trizol reagent (Invitrogen) and reverse transcribed into cDNA using cDNA synthesis kit (Bio-Rad Laboratories). The cDNA was diluted 50-fold as a template for qRT-PCR. According to the kit instructions mRNA expression levels were detected using SYBR Green fluorescent probe. Primers used for qRT-PCR are: Tnf-α, forward primer 5′-[…]-3′ (SEQ ID NO:1), reverse primer 5′-[…]-3′ (SEQ ID NO:2); Mcp-1, forward primer 5′-[…]-3′ (SEQ ID NO:3), reverse primer 5′-[…]-3′ (SEQ ID NO:4); 18S rRNA, forward primer 5′-[…]-3′ (SEQ ID NO:5), reverse primer 5′-[…]-3′ (SEQ ID NO:6).
CD4^+ naive T cells were isolated and purified from the spleens of wild-type C57BL/6J mice using a naive CD4+ T cell isolation kit (#130-104-453, Miltenyi Biotech) according to the manufacturer's recommendations. The isolated CD4^+ naive T cells were incubated with antibodies against CD4 (#100406, BioLegend), CD25 (#17025182, eBiosciences) and CD45RB (#103314, BioLegend) and purity was analyzed by BD Fortessa flow cytometer (BD Biosciences). 4×10^5 CD4^+ naive T cells were intraperitoneally injected into Rag 1^−/− immunodeficient mice. Clinical symptoms of colitis including fecal occult blood, loose stool/diarrhea, rough/hunched posture and weight loss were monitored every three days thereafter. […]
A general note: In qPCR the cycle at which signal appears reflects the starting amount.

The test system of the next experiment is CD4+Foxp3+ Treg cells. The experiment in a line: Flow cytometry of regulatory T cells in colon lamina propria lymphocytes, T cell transfer colitis model. The settings on record: JCM-16021 2.0 g/kg; IFLX 5 mg/kg; FACS, FIG. 4B. The protocol: After dissecting and isolating the colon from mice, it was washed four times in ice-cold PBS (137 mM NaCl, 2.7 mM KCl, 10 mM Na2HPO4, 1.8 mM KH2PO4, pH 7.4) and then cut into approximately 1 cm long fragments. Intestinal epithelial cells and lamina propria were separated by vigorous shaking in HBSS buffer containing 2 mM EDTA at 37° C. for 30 minutes. Intestinal epithelial cells were collected by centrifugation at 1,000 rpm at 4° C. The remaining colon tissue was incubated with digestion buffer (DMEM medium, 5% fetal calf serum, 1 mg/mL collagenase IV and DNAse I) at 37° C. with shaking for 40 minutes to separate colon lamina propria lymphocytes. The digested colon tissue cell suspension was filtered through a 70 micron cell filter and centrifuged. […]
Colon lamina propria lymphocytes were diluted to 1×10^5 cells/mL and subjected to intracellular staining after fixation and permeabilization. Cells were stained with a primary antibody diluted 1:100 at 4° C. in the dark for 30 minutes and analyzed by flow cytometry using antibodies against CD3 (APC, BD Biosciences), CD4 (FITC, BD Biosciences), and Foxp3 (PE, BD Biosciences). Analysis was performed using a BD LSRFortessa™ flow cytometer (BD Biosciences) and data obtained was analyzed using FlowJo software. […]
On the technique in general: A flow cytometer gives signals particle by particle.

As for infliximab [IFLX], the fecal occult blood result in experiment [1] (JCM-16021 1.0 and 2.0 g/kg oral twice daily for three weeks, IFLX 5 mg/kg once weekly, FIG. 1C) is reported as “did not exhibit similar activity”. For the same substance, the “ulcerative colitis pathological index” value in experiment [1] (JCM-16021 1.0 and 2.0 g/kg oral twice daily for three weeks, IFLX 5 mg/kg once weekly, FIG. 1D) is given as “did not exhibit similar activity”. Moreover, the “overall therapeutic efficacy (comparison of doses and with IFLX)” value in experiment [1] (JCM-16021 2.0 g/kg vs 1.0 g/kg, infliximab 5 mg/kg under the same experimental conditions) is on record as “less effective than JCM-16021”. The “expression level of Tnf-α mRNA in colon tissue” value in the experiment with Tnf-α and Mcp-1 mRNA (FIG. 2B) was “significantly reduced”. The “expression level of Mcp-1 mRNA in colon tissue” value in the experiment on Tnf-α and Mcp-1 mRNA (FIG. 2C) is “significantly reduced”. The “ratio of CD4+Foxp3+ Treg cells in isolated LPMC” value in the experiment with CD4+Foxp3+ Treg cells is on record as “similar”.
